This experiment deals with PC-3 cells. Description: Antiproliferative activity, Alamar Blue assay, PC-3 cells. It counts as cell-based, human. Conditions: Homo sapiens, PC-3, PC3 cells, Alamar Blue; read-out: PC3 antiproliferative activity pIC50 (converted). An outline of the steps: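 PC-3 cells seeded at 4.5×10^3 cells/ml, left to adhere 24 hr, then exposed to compound for 4 days. Resazurin (Alamar Blue) added for a further 24 hrs at 37° C; fluorescence read at 540/590 nm. Viability as % of untreated control, mean of 3 wells; IC50 by probit analysis, reported as pIC50.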

Regarding `CCc1cc2ccc(C(C)(C#N)Cc3cc(N(C)C)nc(OC)n3)cc2[nH]c1=O` (centres unmarked) [Compound 354], the IC50 was 6310 nM.
As for `CCc1cc2ccc(C(C)(C#N)Cc3nc(OC)cc(N(C)C)n3)cc2[nH]c1=O` (centres unmarked) [Compound 355], the IC50 was 398 nM.
Take `CCc1cc2ccc(C(C)(C#N)Cc3cc(Cl)nc(C)n3)cc2[nH]c1=O` (centres unmarked) [Compound 365]: the IC50 is 631 nM.
The value for `CCc1cc2ccc(C(C)(C#N)CN3CCC(c4ccccc4)CC3)cc2[nH]c1=O` (centres unmarked) [Compound 375] was 1000 nM; that for `CCc1cc2ccc(C(C)(C#N)CN3CCN(c4ccc(C#N)cn4)CC3)cc2[nH]c1=O` (centres unmarked) [Compound 377] was 794 nM; that for `CCc1cc2ccc(C(C)(C#N)Cc3cc(Br)cc4c3OCC4)cc2[nH]c1=O` (centres unmarked) [Compound 378] was 794 nM.
On to `CCc1cc2ccc(C(C)(C#N)Cc3cccc4[nH]ccc34)cc2[nH]c1=O` (centres unmarked) [Compound 379], for which the IC50 was 1260 nM.
The value for `Cc1cc2ccc([C@](C)(C#N)[C@H]3CCc4ccccc43)cc2[nH]c1=O` [Compound 387] was 5010 nM.
For the compound `Cc1cc2ccc(C(C)(C#N)C3CCc4ccccc43)cc2[nH]c1=O` (centres unmarked) [Compound 392], the IC50 was 794 nM.
The value for `Cc1cc2ccc(C(C)(C#N)C3CCCc4ccccc43)cc2[nH]c1=O` (centres unmarked) [Compound 404] was 3980 nM.
With `Cc1cc2ccc(C(C)(C#N)Cc3cccc(/C=C/CCO)c3)cc2[nH]c1=O` (centres unmarked) [Compound 409], the IC50 was 501 nM.

For the origin of these results see patent publication US8778966B2, “Quinolinone derivatives as PARP and tank inhibitors” (Janssen Pharmaceutica, NV, priority 2007, dated 2014).
